{
  "source": "patent US5364631A",
  "about": "“Tocopherol-based pharmaceutical systems” (The Liposome Company, Inc., priority 1993, dated 1994)",
  "key": {"[1]": {"experiment": "stabilization of THS into the bilayer phase at acidic pH (detergent/surfactant screening)", "from_the_text": "Stabilizers are defined as compounds which allow the formation and/or maintenance of the bilayer state of d-alpha-tocopherol acid succinate based liposomes in an acidic pH environment."}, "[2]": {"experiment": "freeze fracture electron microscopy / appearance of THS bilayers, effect of pH", "assay_type": "physicochemical", "description": "Characterizing the pH-dependent polymorphic nature of the THS is of importance in designing drug delivery systems comprising THS.\nAn aliquot (0.1-0.3 ul) of the 10% THS vesicle specimen was sandwiched between a pair of Balzers (Nashua, NH) copper support plates and rapidly plunged from 23° C. into liquid propane. Samples were fractured and replicated on a double replicating device in a Balzers freeze-fracture unit at a vacuum of 2×10^-6 mbar or better and at -115° C. Replicas were floated off in 3N HNO3, followed by washing in a graded series of Chlorox solutions. These were finally cleaned in distilled water and picked up on 300 Hex mesh copper grids (Polysciences, PA). Replicas were viewed on a Philips 300 electron microscope at a magnification of 22,000 times."}, "[3]": {"details": "cited from earlier work"}, "[4]": {"details": "cited from earlier work", "remark": "listed apart in the source"}},
  "data": [
    {"compound": "sorbitan monopalmitate", "values": [
      {"measurement": "stabilization of THS into the bilayer phase", "setting": "[1]", "value": "do not stabilize the preparations"}
    ]},
    {"compound": "Cc1c(C)c2c(c(C)c1OC(=O)CCC(=O)O)CC[C@@](C)(CCC[C@H](C)CCC[C@H](C)CCCC(C)C)O2", "note": "[THS, d-alpha-tocopherol acid succinate]", "values": [
      {"measurement": "precipitation upon lowering the pH", "setting": "[2]; lowered pH, no stabilizer", "value": "precipitates resembling hexII phase lipid are formed"},
      {"measurement": "vesicle morphology by freeze fracture electron microscopy", "setting": "[2]; pH 7.0", "value": "heterogenous population of multilamellar and unilamellar vesicles"},
      {"measurement": "pH range in which aqueous suspensions are in the bilayer phase", "setting": "[3]; aqueous suspension", "value": "6.0-9.0 pH"},
      {"measurement": "phase formed on lowering the pH below about 6.0 or introducing divalent cations", "setting": "[3]; pH below about 6.0 or Mg++ or Ca++", "value": "produces vesicle aggregation and fusion, and induces hexagonal phase (hexII) formation"}
    ]},
    {"compound": "CC[C@@H]1C(=O)OC[C@@H]1Cc1cncn1C", "note": "[pilocarpine]", "values": [
      {"measurement": "chemical stability at high pH", "setting": "[4]; high pH, base-catalyzed hydrolysis", "value": "unstable at high pH"},
      {"measurement": "chemical stability at lower pH", "setting": "[4]; lower pH (protonated)", "value": "more stable"},
      {"measurement": "chemical stability in pilocarpine and THS mixtures", "setting": "[4]; pH values around 7.0", "value": "chemically unstable"}
    ]},
    {"compound": "Cc1c(C)c2c(c(C)c1OC(=O)CCC(=O)O)CCC(C)(CCCC(C)CCCC(C)CCCC(C)C)O2", "note": "(centres unmarked) [t-THS, tris(hydroxymethyl)aminomethane)-tocopherol hemisuccinate]", "values": [
      {"measurement": "trapping efficiency of closed multilamellar vesicles", "setting": "[3]; physiological pH", "value": "high trapping efficiencies"}
    ]},
    {"compound": "CCCCCCCCCCCCCCCCCC(=O)OCC(O)CO", "note": "(centres unmarked) [glycerol monostearate]", "values": [
      {"measurement": "stabilization of THS into the bilayer phase", "setting": "[1]", "value": "do not stabilize the preparations"}
    ]},
    {"compound": "sorbitan monolaurate", "values": [
      {"measurement": "stabilization of THS into the bilayer phase", "setting": "[1]", "value": "do not stabilize the preparations"}
    ]}
  ]
}
